Columns and labels:
Human P2Y12 receptor = molecular target: T1, Human P2Y12 receptor (Homo sapiens, UniProt Q9H244); assay: Human P2Y12 receptor cell membrane binding assay with [3H] 2-Mes-ADP; settings: 1 nM [3H] 2-Mes-ADP, membranes of HEK cells expressing P2Y12 receptor; read-out: Binding activity (IC50)
T1 construct: expressed in transfected cells; host or cells: HEK cells
In short: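 Competition binding used 1 nM [3H]2-MeS-ADP on P2Y12-expressing HEK cell membranes for 1 h at room temperature, followed by filtration and scintillation counting.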

[1] = system: Human platelet aggregation caused by ADP; assay: Inhibition of ADP-induced platelet aggregation (Mimic-human PRP); format: cell-based; settings: 20 μM ADP, human platelet concentrate diluted with PPP, absorption at 595 nm
In short: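 Ki came from non-linear sigmoidal fits of inhibition, measured as the 3-min rise in absorbance at 595 nm after 20 μM ADP, relative to 0/20 μM ADP controls. Platelets (3–4×10^8/mL in PPP-diluted human PRP) were exposed to 0.01–30 μM compound for 20 min at room temperature beforehand.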

T1 sequence (Q9H244 whole entry): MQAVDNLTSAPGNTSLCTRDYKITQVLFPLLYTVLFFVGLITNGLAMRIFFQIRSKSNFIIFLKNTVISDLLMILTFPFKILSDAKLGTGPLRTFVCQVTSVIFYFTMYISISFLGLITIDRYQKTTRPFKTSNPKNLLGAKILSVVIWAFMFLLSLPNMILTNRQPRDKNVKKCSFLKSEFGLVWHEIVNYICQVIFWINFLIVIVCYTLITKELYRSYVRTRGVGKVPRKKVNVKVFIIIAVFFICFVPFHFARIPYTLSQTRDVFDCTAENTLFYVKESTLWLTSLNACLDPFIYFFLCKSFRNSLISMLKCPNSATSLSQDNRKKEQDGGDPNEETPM

CCCc1cc2c(N3CCn4c(nnc4C(F)(F)F)C3)nc(Oc3ccc(C(=O)OC)cc3)nc2s1 [Example 3-34, 4-[6-Propyl-4-(3-trifluoromethyl-5,6-dihydro-8H-[1,2,4]triazolo[4,3-a]pyrazin-7-yl)-thieno[2,3-d]pyrimidin-2-yloxy]-benzoic acid methyl ester]
IC50 (Human P2Y12 receptor): 473 nM | Ki [1]: > 4000 nM

CCCc1cc2c(N3CCn4c(nnc4C(F)(F)F)C3)nc(Oc3ccc(C(=O)O)cc3)nc2s1 [Example 3-35, 4-[6-Propyl-4-(3-trifluoromethyl-5,6-dihydro-8H-[1,2,4]triazolo[4,3-a]pyrazin-7-yl)-thieno[2,3-d]pyrimidin-2-yloxy]-benzoic acid]
IC50 (Human P2Y12 receptor): 99 nM | Ki [1]: 1400 nM

CCCc1cc2c(N3CCn4c(nnc4C(F)(F)F)C3)nc(Oc3ccccn3)nc2s1 [Example 3-36, 7-[6-Propyl-2-(pyridin-2-yloxy)-thieno[2,3-d]pyrimidin-4-yl]-3-trifluoromethyl-5,6,7,8-tetrahydro-[1,2,4]triazolo[4,3-a]pyrazine]
IC50 (Human P2Y12 receptor): 260 nM | Ki [1]: 940 nM

CCCc1cc2c(N3CCn4c(nnc4C(F)(F)F)C3)nc(Oc3cccc(C#N)c3)nc2s1 [Example 3-37, 3-[6-Propyl-4-(3-trifluoromethyl-5,6-dihydro-8H-[1,2,4]triazolo[4,3-a]pyrazin-7-yl)-thieno[2,3-d]pyrimidin-2-yloxy]-benzonitrile]
IC50 (Human P2Y12 receptor): 198 nM | Ki [1]: 1300 nM

CCCc1cc2c(N3CCn4c(nnc4C(F)(F)F)C3)nc(Oc3ccc(C#N)cc3)nc2s1 [Example 3-38, 4-[6-Propyl-4-(3-trifluoromethyl-5,6-dihydro-8H-[1,2,4]triazolo[4,3-a]pyrazin-7-yl)-thieno[2,3-d]pyrimidin-2-yloxy]-benzonitrile]
IC50 (Human P2Y12 receptor): 179 nM | Ki [1]: 2200 nM

CCCc1cc2c(N3CCn4c(nnc4C(F)(F)F)C3)nc(Oc3ccc(CC(=O)OC)cc3)nc2s1 [Example 3-39, {4-[6-Propyl-4-(3-trifluoromethyl-5,6-dihydro-8H-[1,2,4]triazolo[4,3-a]pyrazin-7-yl)-thieno[2,3-d]pyrimidin-2-yloxy]-phenyl}-acetic acid methyl ester]
IC50 (Human P2Y12 receptor): 300 nM | Ki [1]: 2400 nM

CCCc1cc2c(N3CCn4c(nnc4C(F)(F)F)C3)nc(Oc3ccc(CC(=O)O)cc3)nc2s1 [Example 3-40, {4-[6-Propyl-4-(3-trifluoromethyl-5,6-dihydro-8H-[1,2,4]triazolo[4,3-a]pyrazin-7-yl)-thieno[2,3-d]pyrimidin-2-yloxy]-phenyl}-acetic acid]
IC50 (Human P2Y12 receptor): 230 nM | Ki [1]: 1200 nM

CCCc1cc2c(N3CCn4c(nnc4C(F)(F)F)C3)nc(Oc3ccc(CCC(=O)OC)cc3)nc2s1 [Example 3-41, 3-{4-[6-Propyl-4-(3-trifluoromethyl-5,6-dihydro-8H-[1,2,4]triazolo[4,3-a]pyrazin-7-yl)-thieno[2,3-d]pyrimidin-2-yloxy]-phenyl}-propionic acid methyl ester]
IC50 (Human P2Y12 receptor): 390 nM | Ki [1]: 1500 nM

CCCc1cc2c(N3CCn4c(nnc4C(F)(F)F)C3)nc(Oc3ccc(CCC(=O)O)cc3)nc2s1 [Example 3-42, 3-{4-[6-Propyl-4-(3-trifluoromethyl-5,6-dihydro-8H-[1,2,4]triazolo[4,3-a]pyrazin-7-yl)-thieno[2,3-d]pyrimidin-2-yloxy]-phenyl}-propionic acid]
IC50 (Human P2Y12 receptor): 250 nM | Ki [1]: 660 nM

CCCc1cc2c(N3CCn4c(nnc4C(F)(F)F)C3)nc(Oc3ccc(OCC(=O)OC)cc3)nc2s1 [Example 3-43, {4-[6-Propyl-4-(3-trifluoromethyl-5,6-dihydro-8H-[1,2,4]triazolo[4,3-a]pyrazin-7-yl)-thieno[2,3-d]pyrimidin-2-yloxy]-phenoxy}-acetic acid methyl ester]
IC50 (Human P2Y12 receptor): 650 nM | Ki [1]: > 4000 nM

CCCc1cc2c(N3CCn4c(nnc4C(F)(F)F)C3)nc(Oc3ccc(OCC(=O)O)cc3)nc2s1 [Example 3-44, {4-[6-Propyl-4-(3-trifluoromethyl-5,6-dihydro-8H-[1,2,4]triazolo[4,3-a]pyrazin-7-yl)-thieno[2,3-d]pyrimidin-2-yloxy]-phenoxy}-acetic acid]
IC50 (Human P2Y12 receptor): 180 nM | Ki [1]: 500 nM

CCCc1cc2c(N3CCn4c(nnc4C(F)(F)F)C3)nc(Oc3cccc(N4CCNCC4)c3)nc2s1 [Example 3-45, 7-[2-(3-piperazin-1-yl-phenoxy)-6-propyl-thieno[2,3-d]pyrimidin-4-yl]-3-trifluoromethyl-5,6,7,8-tetrahydro-[1,2,4]triazolo[4,3-a]pyrazine]
IC50 (Human P2Y12 receptor): 1900 nM | Ki [1]: > 4000 nM

CCCc1cc2c(N3CCn4c(nnc4C(F)(F)F)C3)nc(Oc3ccc(N4CCNCC4)cc3)nc2s1 [Example 3-46, 7-[2-(4-piperazin-1-yl-phenoxy)-6-propyl-thieno[2,3-d]pyrimidin-4-yl]-3-trifluoromethyl-5,6,7,8-tetrahydro-[1,2,4]triazolo[4,3-a]pyrazine]
IC50 (Human P2Y12 receptor): 2330 nM | Ki [1]: > 4000 nM

CCCc1cc2c(N3CCn4c(nnc4C(F)(F)F)C3)nc(Oc3ccc(C=O)cc3)nc2s1 [Example 3-47, 4-[6-Propyl-4-(3-trifluoromethyl-5,6-dihydro-8H-[1,2,4]triazolo[4,3-a]pyrazin-7-yl)-thieno[2,3-d]pyrimidin-2-yloxy]-benzaldehyde]
IC50 (Human P2Y12 receptor): 375 nM | Ki [1]: > 4000 nM

CCCc1cc2c(N3CCn4c(nnc4C(F)(F)F)C3)nc(Oc3ccc(CO)cc3)nc2s1 [Example 3-48, {4-[6-Propyl-4-(3-trifluoromethyl-5,6-dihydro-8H-[1,2,4]triazolo[4,3-a]pyrazin-7-yl)-thieno[2,3-d]pyrimidin-2-yloxy]-phenyl}-methanol]
IC50 (Human P2Y12 receptor): 340 nM | Ki [1]: > 4000 nM

CCc1cc2c(N3CCn4c(nnc4C(F)(F)F)C3)nc(OCCO)nc2s1 [Example 3-50, 2-[6-Ethyl-4-(3-trifluoromethyl-5,6-dihydro-8H-[1,2,4]triazolo[4,3-a]pyrazin-7-yl)-thieno[2,3-d]pyrimidin-2-yloxy]-ethanol]
IC50 (Human P2Y12 receptor): 596 nM | Ki [1]: 141 nM

CCCc1cc2c(N3CCn4c(nnc4C(F)(F)F)C3)nc(SCc3ccccc3)nc2s1 [Example 3-51, 7-(2-Benzylsulfanyl-6-propyl-thieno[2,3-d]pyrimidin-4-yl)-3-trifluoromethyl-5,6,7,8-tetrahydro-[1,2,4]triazolo[4,3-a]pyrazine]
IC50 (Human P2Y12 receptor): 700 nM | Ki [1]: 1170 nM

CCCc1cc2c(N3CCn4c(nnc4C(F)(F)F)C3)nc(Sc3ncccn3)nc2s1 [Example 3-53, 7-[6-Propyl-2-(pyrimidin-2-ylsulfanyl)-thieno[2,3-d]pyrimidin-4-yl]-3-trifluoromethyl-5,6,7,8-tetrahydro-[1,2,4]triazolo[4,3-a]pyrazine]
IC50 (Human P2Y12 receptor): 570 nM | Ki [1]: 760 nM

CCCc1cc2c(N3CCn4c(nnc4C(F)(F)F)C3)nc(OCCNCC(=O)O)nc2s1 [Example 3-55, {2-[6-Propyl-4-(3-trifluoromethyl-5,6-dihydro-8H-[1,2,4]triazolo[4,3-a]pyrazin-7-yl)-thieno[2,3-d]pyrimidin-2-yloxy]-ethylamino}-acetic acid]
IC50 (Human P2Y12 receptor): 150 nM | Ki [1]: 25 nM

CCCc1cc2c(N3CCn4c(nnc4C(F)(F)F)C3)nc(OCCN)nc2s1 [Example 3-58, 2-[6-Propyl-4-(3-trifluoromethyl-5,6-dihydro-8H-[1,2,4]triazolo[4,3-a]pyrazin-7-yl)-thieno[2,3-d]pyrimidin-2-yloxy]-ethylamine]
IC50 (Human P2Y12 receptor): 400 nM | Ki [1]: 21 nM

CCCc1cc2c(N3CCn4c(nnc4C(F)(F)F)C3)nc(OCCNC(=O)COC)nc2s1 [Example 3-63, 2-Methoxy-N-{2-[6-propyl-4-(3-trifluoromethyl-5,6-dihydro-8H-[1,2,4]triazolo[4,3-a]pyrazin-7-yl)-thieno[2,3-d]pyrimidin-2-yloxy]-ethyl}-acetamide]
IC50 (Human P2Y12 receptor): 43 nM | Ki [1]: 7 nM

CCCc1cc2c(N3CCn4c(nnc4C(F)(F)F)C3)nc(OCCNS(C)(=O)=O)nc2s1 [Example 3-64, N-{2-[6-Propyl-4-(3-trifluoromethyl-5,6-dihydro-8H-[1,2,4]triazolo[4,3-a]pyrazin-7-yl)-thieno[2,3-d]pyrimidin-2-yloxy]-ethyl}-methanesulfonamide]
IC50 (Human P2Y12 receptor): 110 nM | Ki [1]: 150 nM

CCCc1cc2c(N3CCn4c(nnc4C(F)(F)F)C3)nc(OCCNC(=O)CN)nc2s1 [Example 3-65, 2-Amino-N-{2-[6-propyl-4-(3-trifluoromethyl-5,6-dihydro-8H-[1,2,4]triazolo[4,3-a]pyrazin-7-yl)-thieno[2,3-d]pyrimidin-2-yloxy]-ethyl}-acetamide]
IC50 (Human P2Y12 receptor): 180 nM | Ki [1]: 13 nM

CCCc1cc2c(N3CCn4c(nnc4C(F)(F)F)C3)nc(OCCNC(=O)CS(C)(=O)=O)nc2s1 [Example 3-66, 2-Methanesulfonyl-N-{2-[6-propyl-4-(3-trifluoromethyl-5,6-dihydro-8H-[1,2,4]triazolo[4,3-a]pyrazin-7-yl)-thieno[2,3-d]pyrimidin-2-yloxy]-ethyl}-acetamide]
IC50 (Human P2Y12 receptor): 150 nM | Ki [1]: 70 nM

CCCc1cc2c(N3CCn4c(nnc4C(F)(F)F)C3)nc(OCCNC(=O)CCCS(N)(=O)=O)nc2s1 [Example 3-67, N-{2-[6-Propyl-4-(3-trifluoromethyl-5,6-dihydro-8H-[1,2,4]triazolo[4,3-a]pyrazin-7-yl)-thieno[2,3-d]pyrimidin-2-yloxy]-ethyl}-4-sulfamoyl-butyramide]
IC50 (Human P2Y12 receptor): 90 nM | Ki [1]: 17 nM

CCCc1cc2c(N3CCn4c(nnc4C(F)(F)F)C3)nc(OCCNS(=O)(=O)C3CC3)nc2s1 [Example 3-68, Cyclopropanesulfonic Acid {2-[6-propyl-4-(3-trifluoromethyl-5,6-dihydro-8H-[1,2,4]triazolo[4,3-a]pyrazin-7-yl)-thieno[2,3-d]pyrimidin-2-yloxy]-ethyl}-amide]
IC50 (Human P2Y12 receptor): 140 nM | Ki [1]: 120 nM

Reference: patent publication US20110166121A1 (LG LIFE SCIENCES LTD., priority 2008, published 2011)
